Measured values reported in patent US20110152326A1, “SUBSTITUTED ARYLOXOETHYL CYCLOPROPANECARBOXAMIDE COMPOUNDS AS VR1 RECEPTOR ANTAGONISTS” (priority 2005, published 2011).

Target: T1, human VR1 receptors (Homo sapiens, UniProt Q8NER1)
T1 construct: host or cells: cells that highly express human VR1 receptors
Experiment: Human VR1 antagonist assay, Ca2+ imaging, capsaicin stimulation
Type: cell-based
Conditions: human VR1 expressing cells; concentration required to reduce capsaicin-evoked Ca2+ influx by 50%; capsaicin 300 nM; read-out: hVR1 IC50
Excerpt: VR1 antagonistic activity can be determined by the Ca^2+ imaging assay using human VR1 highly expressing cells. The cells that highly express human VR1 receptors are obtainable from several different conventional methods. The one standard method is cloning from human Dorsal Root Ganglion (DRG) or kidney according to the methods such as described in the journal article; Nature, 389, pp 816-824, 1997. Alternatively VR1 receptors highly expressing human keratinocytes are also known and published in the journal article (Biochemical and Biophysical Research Communications, 291, pp 124-129, 2002). […] Further more, the method to up regulate human VR1 gene, which is usually a silent gene or don't produce detectable level of VR1 receptors, is also available to obtain propriety cells. Such genetic modification method was described in detail; Nat. Biotechnol., 19, pp 440-445, 2001.
The cells that express human VR1 receptors were maintained in culture flask at 37° C. in an environment containing 5% CO2 until use in the assay. The intracellular Ca^2+ imaging assay to determine VR1 antagonistic activities were done by following procedures.
The culture medium was removed from the flask and fura-2/AM fluorescent calcium indicator was added to the flask at a concentration of 5 μM in the medium. The flask was placed in CO2 incubator and incubated for 1 hour. Then the cells expressing the human VR1 receptors were detached from the flask follow by washing with phosphate buffer saline, PBS(−) and re-suspended in assay buffer. The 80 μl of aliquot of cell suspension (3.75×10^5 cells/ml) was added to the assay plate and the cells were spun down by centrifuge (950 rpm, 20° C., 3 minutes).
The capsaicin-induced changes in the intracellular calcium concentration were monitored using FDSS 6000 (Hamamatsu Photonics, Japan), a fluorometric imaging system. The cell suspension in Krebs-Ringer HEPES (KRH) buffer (115 mM NaCl, 5.4 mM KCl, 1 mM MgSO4, 1.8 mM CaCl2, 11 mM D-Glucose, 25 mM HEPES, 0.96 mM Na2HPO4, pH 7.3) were pre-incubated with varying concentrations of the test compounds or KRH buffer (buffer control) for 15 minutes at room temperature under the dark condition. Then capsaicin solution, which gives 300 nM in assay mixture, was automatically added to the assay plate by the FDSS 6000.
The monitoring of the changes in the fluorescence signals (λex=340 nm/380 nm, λem=510-520 nm) was initiated at 1 minute prior to the addition of capsaicin solution or acidic buffer and continued for 5 minute.

T1 sequence (Q8NER1 whole entry): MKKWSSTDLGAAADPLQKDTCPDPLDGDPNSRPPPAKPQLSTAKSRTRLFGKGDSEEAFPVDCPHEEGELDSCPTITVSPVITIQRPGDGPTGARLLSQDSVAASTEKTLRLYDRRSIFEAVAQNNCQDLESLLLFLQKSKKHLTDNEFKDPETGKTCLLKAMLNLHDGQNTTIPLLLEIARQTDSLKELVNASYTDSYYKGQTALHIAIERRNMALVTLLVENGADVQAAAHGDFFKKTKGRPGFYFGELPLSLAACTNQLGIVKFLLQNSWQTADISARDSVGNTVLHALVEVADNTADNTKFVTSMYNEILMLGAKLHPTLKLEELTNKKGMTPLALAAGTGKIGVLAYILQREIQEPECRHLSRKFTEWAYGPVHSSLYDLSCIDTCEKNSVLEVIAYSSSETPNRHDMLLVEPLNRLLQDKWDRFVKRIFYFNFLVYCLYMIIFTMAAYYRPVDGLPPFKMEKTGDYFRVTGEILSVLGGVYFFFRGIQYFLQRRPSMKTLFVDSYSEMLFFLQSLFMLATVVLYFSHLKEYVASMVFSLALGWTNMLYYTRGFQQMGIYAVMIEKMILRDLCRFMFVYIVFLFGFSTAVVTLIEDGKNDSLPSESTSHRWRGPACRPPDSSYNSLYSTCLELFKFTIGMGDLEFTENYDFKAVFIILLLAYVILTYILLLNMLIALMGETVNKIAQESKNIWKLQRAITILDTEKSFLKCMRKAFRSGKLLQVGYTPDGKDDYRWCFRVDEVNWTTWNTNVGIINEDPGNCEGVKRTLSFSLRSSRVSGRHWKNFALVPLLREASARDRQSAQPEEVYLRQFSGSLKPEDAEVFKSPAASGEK

SMILES | IC50
Cc1cccnc1C(=O)CNC(=O)C1CC1c1ccc(C(C)(C)C)cc1 (stereo not shown) [Example 1, 2-(4-Tert-Butylphenyl)-N-[2-(3-Methylpyridin-2-yl)-2-Oxoethyl]Cyclopropanecarboxamide] | 102 nM
Cc1cccnc1C(=O)CNC(=O)C1CC1(C)c1ccc(C(C)(C)C)cc1 (stereo not shown) [Example 6, 2-(4-Tert-Butylphenyl)-2-Methyl-N-[2-(3-Methylpyridin-2-yl)-2-Oxoethyl]Cyclopropanecarboxamide] | 134 nM
COc1ccc(C)c(C(=O)CNC(=O)C2CC2c2ccc(C(C)(C)C)cc2)c1 (stereo not shown) [Example 2, 2-(4-Tert-Butylphenyl)-N-[2-(5-Methoxy-2-Methylphenyl)-2-Oxoethyl]Cyclopropanecarboxamide] | 1010 nM
Cc1cccnc1C(=O)CNC(=O)C1C(c2ccc(C(C)(C)C)cc2)C1(F)F (stereo not shown) [Example 9, 3-(4-Tert-Butylphenyl)-2,2-Difluoro-N-[2-(3-Methylpyridin-2-yl)-2-Oxoethyl]Cyclopropanecarboxamide] | 306 nM
Cc1ccc(O)cc1C(=O)CNC(=O)C1CC1c1ccc(C(C)(C)C)cc1 (stereo not shown) [Example 3, 2-(4-Tert-Butylphenyl)-N-[2-(5-Hydroxy-2-Methylphenyl)-2-Oxoethyl]Cyclopropanecarboxamide] | 704 nM
Cn1ccnc1C(=O)CNC(=O)C1CC1(C)c1ccc(C(C)(C)C(F)(F)F)cc1 (stereo not shown) [Example 11, 2-Methyl-N-[2-(1-Methyl-1H-Imidazol-2-yl)-2-Oxoethyl]-2-[4-(2,2,2-Trifluoro-1,1-Dimethylethyl)Phenyl]Cyclopropanecarboxamide] | 451 nM
Cc1cccnc1C(=O)CNC(=O)C1CC1c1ccc(C(C)(C)C)c(Cl)c1 (stereo not shown) [Example 7, 2-(4-Tert-Butyl-3-Chlorophenyl)-N-[2-(3-Methylpyridin-2-yl)-2-Oxoethyl]Cyclopropanecarboxamide] | 92 nM

More lines, now with the values ahead:

IC50 | SMILES
340 nM | CCn1ccnc1C(=O)CNC(=O)C1CC1(C)c1ccc(C(C)(C)C(F)(F)F)cc1 (stereo not shown) [Example 12, N-[2-(1-Ethyl-1H-Imidazol-2-yl)-2-Oxoethyl]-2-Methyl-2-[4-(2,2,2-Trifluoro-1,1-Dimethylethyl)Phenyl]Cyclopropanecarboxamide]
99 nM | Cc1cccnc1C(=O)CNC(=O)C1CC1c1ccc(C(C)(C)C)c(F)c1 (stereo not shown) [Example 4, 2-(4-Tert-Butyl-3-Fluorophenyl)-N-[2-(3-Methylpyridin-2-yl)-2-Oxoethyl]Cyclopropanecarboxamide]
69 nM | CCn1ccnc1C(=O)CNC(=O)C1CC1c1cc(F)c(C(C)(C)C(F)(F)F)c(F)c1 (stereo not shown) [Example 13, 2-[3,5-Difluoro-4-(2,2,2-Trifluoro-1,1-Dimethylethyl)Phenyl]-N-[2-(1-Ethyl-1H-Imidazol-2-yl)-2-Oxoethyl]Cyclopropanecarboxamide]
111 nM | Cc1cccnc1C(=O)CNC(=O)C1CC1c1ccc(C(C)(C)C(F)(F)F)cc1 (stereo not shown) [Example 5, N-[2-(3-Methylpyridin-2-yl)-2-Oxoethyl]-2-[4-(2,2,2-Trifluoro-1,1-Dimethylethyl)Phenyl]Cyclopropanecarboxamide]
238 nM | Cn1ccnc1C(=O)CNC(=O)C1CC1c1ccc(C(C)(C)C)c(F)c1 (stereo not shown) [Example 10, 2-(4-Tert-Butyl-3-Fluorophenyl)-N-[2-(1-Methyl-1H-Imidazol-2-yl)-2-Oxoethyl]Cyclopropanecarboxamide]
102 nM | CC(C)(C)c1ccc(C2CC2C(=O)NCC(=O)c2ncccc2C(F)(F)F)cc1F (stereo not shown) [Example 8, 2-(4-Tert-Butyl-3-Fluorophenyl)-N-[2-(3-Trifluoromethylpyridin-2-yl)-2-Oxoethyl]Cyclopropanecarboxamide]
